{"source": "patent US4520022A", "about": "“Substituted vinyl cephalosporins” (priority 1983, dated 1985)", "key": {"S. aureus BX-1633": {"tested_on": "S. aureus BX-1633", "experiment": "Protective dose PD50, mice infected with lethal inoculum, oral treatment, S. aureus BX-1633", "assay_type": "in vivo", "conditions": "Staphylococcus aureus, BX1633, 120 h"}, "S. pyogenes A20201": {"tested_on": "S. pyogenes A20201", "experiment": "Protective dose PD50, mice infected with lethal inoculum, oral treatment, S. pyogenes A20201", "assay_type": "in vivo", "conditions": "Streptococcus pyogenes, 120 h"}, "H. influenza A9729": {"tested_on": "H. influenza A9729", "experiment": "Protective dose PD50, mice infected with lethal inoculum, oral treatment, H. influenza A9729", "assay_type": "in vivo", "conditions": "Mus musculus, 120 h", "excerpt": "The structure activity correlations drawn from the foregoing in vitro studies are born out by the results of in vivo studies in mice. Table 4 is a tabulation of the protective doses for mice infected with a lethal inoculum of a bacteria. Two different bacteria were employed in the studies, one a Gram+ organism and the other a Gram- organism. The protective dose (PD50) is that dose which when administered to a group of infected mice results in 50% survival after five days. Normally untreated infected mice die within three days following injection of the lethal inoculum.\nProtective Dose PD50 for Mice Infected with Lethal Inoculum"}, "P. mirabilis A9554": {"tested_on": "P. mirabilis A9554", "experiment": "Protective dose PD50, mice infected with lethal inoculum, oral treatment, P. mirabilis A9554", "assay_type": "in vivo"}, "S. pyogenes": {"tested_on": "S. pyogenes", "experiment": "In vitro activity against Streptococci (MIC), S. pyogenes", "assay_type": "cell-based", "conditions": "Streptococcus pyogenes, Compound 9 lot 2"}, "S. pneumoniae": {"tested_on": "S. pneumoniae", "experiment": "In vitro activity against Streptococci (MIC), S. pneumoniae", "assay_type": "cell-based", "conditions": "Streptococcus pneumoniae, Compound 9 lot 2"}, "N. gonorrheae": {"tested_on": "N. gonorrheae", "experiment": "In vitro activity against Neisseria (MIC), N. gonorrheae", "assay_type": "cell-based"}, "N. meningitidis": {"tested_on": "N. meningitidis", "experiment": "In vitro activity against Neisseria (MIC), N. meningitidis", "assay_type": "cell-based"}, "H. influenzae": {"tested_on": "H. influenzae", "experiment": "In vitro activity against Haemophilis (MIC), H. influenzae", "assay_type": "cell-based", "conditions": "Haemophilus influenzae, Compound 9 lot 2"}, "[1]": {"conditions": "mouse, in vivo"}, "in vivo": {"experiment": "in vivo", "conditions": "mouse; for half-life: T1/2"}, "[2]": {"tested_on": "Gp Ib: S. aureus 193, BX-1633-2 A9606, A15092, Russell, A9602", "conditions": "Staphylococcus aureus"}, "[3]": {"tested_on": "Gp Ia: S. aureus Smith A9537, A9497, Terajima, A9534, A9601", "conditions": "Staphylococcus aureus"}, "S. aureus Smith": {"tested_on": "S. aureus Smith", "experiment": "Protective dose, mice infected with lethal inoculum, oral treatment, S. aureus Smith", "assay_type": "in vivo", "conditions": "Staphylococcus aureus, po, 120 h, oral; separate run of Compound 42 and BMY28100; cephalexin/cefadroxil controls not available; read-out: Protective dose (PD50), S. aureus Smith"}, "bacteria": {"tested_on": "bacteria", "experiment": "Antibacterial activity, general statements", "conditions": "in words"}, "[4]": {"tested_on": "Gp Ia, Gp Ib, Gn Ia organisms of Table 2", "experiment": "Test medium comparison, agar dilution MIC, Mueller-Hinton agar versus nutrient agar"}}, "note": "Where two headings read alike, the source gives them in different places."}
{"smiles": "CC1=C(C(=O)O)N2C(=O)[C@@H](NC(=O)[C@H](N)c3ccc(O)cc3)[C@H]2SC1", "note": "[Cefadroxil]", "values": [{"measurement": "ED50", "setting": "S. aureus BX-1633", "value": 7.2, "unit": "mg/kg"}, {"measurement": "ED50", "setting": "S. pyogenes A20201", "value": 0.25, "unit": "mg/kg"}, {"measurement": "ED50", "setting": "H. influenza A9729", "value": 25, "unit": "mg/kg"}, {"measurement": "Protective Dose PD50", "setting": "P. mirabilis A9554", "value": 14}, {"measurement": "MIC", "setting": "S. pyogenes; S. pyogenes A9604, read-out: MIC", "value": 0.8, "unit": "µg/mL"}, {"measurement": "MIC", "setting": "S. pyogenes; S. pyogenes A15040, read-out: MIC", "value": 0.8, "unit": "µg/mL"}, {"measurement": "MIC", "setting": "S. pyogenes; S. pyogenes A20065, read-out: MIC", "value": 0.8, "unit": "µg/mL"}, {"measurement": "MIC", "setting": "S. pyogenes; S. pyogenes A20201, read-out: MIC", "value": 0.4, "unit": "µg/mL"}, {"measurement": "MIC", "setting": "S. pyogenes; S. pyogenes Dick, read-out: MIC", "value": 0.8, "unit": "µg/mL"}, {"measurement": "MIC", "setting": "S. pyogenes; S. pyogenes S-23, Dick, A9604, A20065, A15040, read-out: MIC, Geometric Mean", "value": 0.8, "unit": "µg/mL"}, {"measurement": "MIC", "setting": "S. pyogenes; S. pyogenes S-23, read-out: MIC", "value": 0.8, "unit": "µg/mL"}, {"measurement": "MIC", "setting": "S. pneumoniae; S. pneumoniae A9585, read-out: MIC", "value": 1.6, "unit": "µg/mL"}, {"measurement": "MIC", "setting": "S. pneumoniae; S. pneumoniae A15069, read-out: MIC", "value": 1.6, "unit": "µg/mL"}, {"measurement": "MIC", "setting": "S. pneumoniae; S. pneumoniae A20759, read-out: MIC", "value": 3.1, "unit": "µg/mL"}, {"measurement": "MIC", "setting": "S. pneumoniae; S. pneumoniae Type I, read-out: MIC", "value": 1.6, "unit": "µg/mL"}, {"measurement": "MIC", "setting": "S. pneumoniae; S. pneumoniae Type II, I, III, A9585, A15069, read-out: MIC, Geometric Mean", "value": 1.6, "unit": "µg/mL"}, {"measurement": "MIC", "setting": "S. pneumoniae; S. pneumoniae Type II, read-out: MIC", "value": 1.6, "unit": "µg/mL"}, {"measurement": "MIC", "setting": "S. pneumoniae; S. pneumoniae Type III, read-out: MIC", "value": 1.6, "unit": "µg/mL"}, {"measurement": "MIC", "setting": "N. gonorrheae; N. gonorrheae A20142, Compound 9 lot 2", "value": 6.3, "unit": "µg/mL"}, {"measurement": "MIC", "setting": "N. gonorrheae; N. gonorrheae A20143, Compound 9 lot 2", "value": 6.3, "unit": "µg/mL"}, {"measurement": "MIC", "setting": "N. gonorrheae; N. gonorrheae A20154, Compound 9 lot 2", "value": 6.3, "unit": "µg/mL"}, {"measurement": "MIC", "setting": "N. gonorrheae; N. gonorrheae A20155, Compound 9 lot 2", "value": 6.3, "unit": "µg/mL"}, {"measurement": "MIC", "setting": "N. gonorrheae; read-out: MIC", "value": 6.3, "unit": "µg/mL"}, {"measurement": "MIC", "setting": "N. gonorrheae; read-out: MIC, Geometric Mean", "value": 6.3, "unit": "µg/mL"}, {"measurement": "MIC", "setting": "N. meningitidis; N. meningitidis A21487, Compound 9 lot 2", "value": 6.3, "unit": "µg/mL"}, {"measurement": "MIC", "setting": "N. meningitidis; N. meningitidis A21496, Compound 9 lot 2", "value": 6.3, "unit": "µg/mL"}, {"measurement": "MIC", "setting": "N. meningitidis; N. meningitidis A21497, Compound 9 lot 2", "value": 6.3, "unit": "µg/mL"}, {"measurement": "MIC", "setting": "N. meningitidis; Neisseria meningitidis, read-out: MIC", "value": 6.3, "unit": "µg/mL"}, {"measurement": "MIC", "setting": "N. meningitidis; Neisseria meningitidis, read-out: MIC, Geometric Mean", "value": 6.3, "unit": "µg/mL"}, {"measurement": "MIC", "setting": "H. influenzae; H. influenzae A9729, read-out: MIC", "value": 6.3, "unit": "µg/mL"}, {"measurement": "MIC", "setting": "H. influenzae; H. influenzae A9833, read-out: MIC", "value": 6.3, "unit": "µg/mL"}, {"measurement": "MIC", "setting": "H. influenzae; H. influenzae A20177, read-out: MIC", "value": 6.3, "unit": "µg/mL"}, {"measurement": "MIC", "setting": "H. influenzae; H. influenzae A20193, read-out: MIC", "value": 6.3, "unit": "µg/mL"}, {"measurement": "MIC", "setting": "H. influenzae; H. influenzae A21523, read-out: MIC", "value": 6.3, "unit": "µg/mL"}, {"measurement": "MIC", "setting": "H. influenzae; H. influenzae A22157, read-out: MIC", "value": 6.3, "unit": "µg/mL"}, {"measurement": "MIC", "setting": "H. influenzae; H. influenzae A22481, read-out: MIC", "value": 6.3, "unit": "µg/mL"}, {"measurement": "MIC", "setting": "H. influenzae; H. influenzae A22482, read-out: MIC", "value": 6.3, "unit": "µg/mL"}, {"measurement": "MIC", "setting": "H. influenzae; H. influenzae A22483, read-out: MIC", "value": 6.3, "unit": "µg/mL"}, {"measurement": "MIC", "setting": "H. influenzae; H. influenzae A22491, read-out: MIC", "value": 6.3, "unit": "µg/mL"}, {"measurement": "MIC", "setting": "H. influenzae; H. influenzae, seven strains above, read-out: MIC, Geometric Mean", "value": 6.3, "unit": "µg/mL"}, {"measurement": "T1/2", "setting": "[1]; im, 20 mg/kg", "value": 0.37, "unit": "h"}, {"measurement": "T1/2", "setting": "[1]; po, 20 mg/kg", "value": 1.6, "unit": "h"}, {"measurement": "T1/2", "setting": "[1]; po, 100 mg/kg", "value": 1.5, "unit": "h"}, {"measurement": "AUC", "setting": "in vivo; im, 20 mg/kg, AUC*", "value": 14000, "unit": "ng·h/mL"}, {"measurement": "Cmax", "setting": "in vivo; im, 20 mg/kg", "value": 21000, "unit": "ng/mL"}, {"measurement": "half-life", "setting": "in vivo; im, 20 mg/kg", "value": 0.33, "unit": "h"}, {"measurement": "AUC", "setting": "in vivo; po, 20 mg/kg, AUC*", "value": 18000, "unit": "ng·h/mL"}, {"measurement": "Cmax", "setting": "in vivo; po, 20 mg/kg", "value": 12000, "unit": "ng/mL"}, {"measurement": "half-life", "setting": "in vivo; po, 20 mg/kg", "value": 1.2, "unit": "h"}, {"measurement": "AUC", "setting": "in vivo; po, 100 mg/kg, AUC", "value": 103000, "unit": "ng·h/mL"}, {"measurement": "Cmax", "setting": "in vivo; po, 100 mg/kg", "value": 56000, "unit": "ng/mL"}, {"measurement": "half-life", "setting": "in vivo; po, 100 mg/kg", "value": 2.3, "unit": "h"}, {"measurement": "MIC", "setting": "[2]; read-out: Minimum Inhibitory Concentration Gp Ib, Mueller-Hinton agar, run 1, average of five organisms", "value": 3.6, "unit": "µg/mL"}, {"measurement": "MIC", "setting": "[2]; read-out: Minimum Inhibitory Concentration Gp Ib, Mueller-Hinton agar, run 2, average of five organisms", "value": 4.1, "unit": "µg/mL"}, {"measurement": "MIC", "setting": "[3]; read-out: Minimum Inhibitory Concentration Gp Ia, Mueller-Hinton agar, run 1, average of five organisms", "value": 1.2, "unit": "µg/mL"}, {"measurement": "MIC", "setting": "[3]; read-out: Minimum Inhibitory Concentration Gp Ia, Mueller-Hinton agar, run 2, average of five organisms", "value": 1.1, "unit": "µg/mL"}]}
{"smiles": "C/C=C\\C1=C(C(=O)O)N2C(=O)[C@@H](NC(=O)[C@H](N)c3ccc(O)c(OC)c3)[C@H]2SC1", "note": "[Compound 42, 7β-[D(-)-2-Amino-2-(4-hydroxy-3-methoxyphenyl)acetamido]-3-[(Z)-1-propen-1-yl]-3-cephem-4-carboxylic Acid]", "values": [{"measurement": "ED50", "setting": "S. aureus Smith", "value": 0.09, "unit": "mg/kg"}, {"measurement": "antibacterial activity", "setting": "bacteria", "value": "high in vitro and in vivo activity"}, {"measurement": "difference in MIC between the two media", "setting": "[4]", "value": "less than three fold"}, {"measurement": "MIC", "setting": "[2]; read-out: Minimum Inhibitory Concentration Gp Ib, Mueller-Hinton agar, not part of run 1, tested separately, average of five organisms", "value": 1.2, "unit": "µg/mL"}, {"measurement": "MIC", "setting": "[2]; read-out: Minimum inhibitory Concentration Gp Ib, Test Medium Comparison, A: Mueller-Hinton agar, average values", "value": 1.2, "unit": "µg/mL"}, {"measurement": "MIC", "setting": "[2]; read-out: Minimum inhibitory Concentration Gp Ib, Test Medium Comparison, B: Nutrient agar, average values", "value": 0.4, "unit": "µg/mL"}, {"measurement": "MIC", "setting": "[3]; read-out: Minimum Inhibitory Concentration Gp Ia, Mueller-Hinton agar, not part of run 1, tested separately, average of five organisms", "value": 0.35, "unit": "µg/mL"}, {"measurement": "MIC", "setting": "[3]; read-out: Minimum inhibitory Concentration Gp Ia, Test Medium Comparison, A: Mueller-Hinton agar, average values", "value": 0.35, "unit": "µg/mL"}, {"measurement": "MIC", "setting": "[3]; read-out: Minimum inhibitory Concentration Gp Ia, Test Medium Comparison, B: Nutrient agar, average values", "value": 0.23, "unit": "µg/mL"}]}
